Non-standard residues stand in square brackets, D forms with d. Residues, ends and D or L forms follow the SMILES beside them. *: point of attachment. Phe(4-guanidino) = N=C(N)Nc1ccc(C[CH](N)C(=O)O)cc1; Phe(4-F) = N[CH](Cc1ccc(F)cc1)C(=O)O; 2Nal = N[C@@H](Cc1ccc2ccccc2c1)C(=O)O; Benzoyl(4-Cl) = O=C(c1ccc(Cl)cc1)*; X5 = O=C(c1cc2ccccc2[nH]1)*; βAla = NCCC(=O)O

A short description of assay [1]: Effective concentration for stimulation of platelet aggregation.
Assay [2] is described as follows: Concentration of compound required to inhibit agonist (SFLLRNP-NH2, at 3 uM) induced platelet aggregation by 50%.
Assay in assay [3]: as above
This is another data set of the same source.

`COc1ccc(C[C@H](NC(=O)[C@@H](N)CO)C(=O)N[C@@H](CC(C)C)C(=O)N[C@@H](CC(C)C)C(=O)N[C@@H](CCCN=C(N)N)C(N)=O)cc1` had an EC50 in assay [1] of 720 nM. In other words, the sub-micromolar range.
Consider `CC(C)CC(NC(=O)C(Cc1ccc(N=C(N)N)cc1)NC(=O)C(Cc1ccc(F)cc1)NC(=O)c1cc2ccccc2[nH]1)C(=O)NC(CCCNC(=N)N)C(N)=O` (stereo not drawn) [1H-Indole-2-carboxylic acid [1-[1-[1-(1-carbamoyl-4-guanidino-butylcarbamoyl)-3-methyl-butylcarbamoyl]-2-(4-guanidino-phenyl)-ethylcarbamoyl]-2-(4-fluoro-phenyl)-ethyl]-amide] (X5-[Phe(4-F)][Phe(4-guanidino)]LR-NH2; configuration not given here), for which a half-maximal effect in assay [1] (EC50) was put at 1800 nM.
In assay [2], `CC(=O)N(C(=O)C=Cc1cccc(Cl)c1)C(Cc1ccc(F)cc1)C(=O)NC(Cc1ccc(N=C(N)N)cc1)C(=O)NC(CC(C)C)C(=O)NC(CCCNC(=N)N)C(N)=O` (stereo not drawn) [2-[2-[2-{Acetyl-[(E)-3-(3-chloro-phenyl)-acryloyl]-amino}-3-(4-fluoro-phenyl)-propionylamino]-3-(4-guanidino-phenyl)-propionylamino]-4-methyl-pentanoic acid (1-carbamoyl-4-guanidino-butyl)-amide] showed an IC50 of 80 nM.
Regarding `CC(=O)N(C(=O)C=Cc1ccccc1)C(Cc1ccc(F)cc1)C(=O)NC(Cc1ccc(N)cc1)C(=O)NC(CC(C)C)C(=O)NC(CCCNC(=N)N)C(N)=O` (stereo not drawn) [2-[2-[2-{Acetyl-[(E)-(3-phenyl-acryloyl)]-amino}-3-(4-fluoro-phenyl)-propionylamino]-3-(4-amino-phenyl)-propionylamino]-4-methyl-pentanoic acid (1-carbamoyl-4-guanidino-butyl)-amide], the EC50 in assay [1] stood at 60000 nM.
As to `CC(=O)NCCC(=O)N[C@@H](Cc1ccc(F)cc1)C(=O)N[C@@H](Cc1ccc2ccccc2c1)C(=O)N[C@@H](CC(C)C)C(=O)N[C@@H](CCCN=C(N)N)C(N)=O` [2-{(R)-2-[2-(3-Acetylamino-propionylamino)-3-(4-fluoro-phenyl)-propionylamino]-3-naphthalen-2-yl-propionylamino}-4-methyl-pentanoic acid (1-carbamoyl-4-guanidino-butyl)-amide] (Ac-[βAla][Phe(4-F)][2Nal]LR-NH2), the midpoint of the response in assay [1], the EC50, lay at 270 nM.
The molecule `CC(=O)N(C(=O)C=Cc1ccccc1)C(Cc1ccc(F)cc1)C(=O)NC(=O)NCCCC(NC(=O)C(CC(C)C)NC(=O)C(N)CCCNC(=N)N)C(=O)O` (stereo not drawn) [5-{3-[2-{Acetyl-[(E)-(3-phenyl-acryloyl)]-amino}-3-(4-fluoro-phenyl)-propionyl]-ureido}-2-[2-(2-amino-5-guanidino-pentanoylamino)-4-methyl-pentanoylamino]-pentanoic acid] came in with an EC50 in assay [1] of 67000 nM.
`CC(=O)N(C(=O)c1ccc(-c2ccccc2)cc1)C(Cc1ccc(F)cc1)C(=O)NC(Cc1ccc(N=C(N)N)cc1)C(=O)NC(CC(C)C)C(=O)NC(CCCNC(=N)N)C(N)=O` (stereo not drawn) [Biphenyl-4-carboxylic acid acetyl-[1-[1-[1-(1-carbamoyl-4-guanidino-butylcarbamoyl)-3-methyl-butylcarbamoyl]-2-(4-guanidino-phenyl)-ethylcarbamoyl]-2-(4-fluoro-phenyl)-ethyl]-amide] had an IC50 in assay [3] of 430 nM.
`CC(C)CC(NC(=O)C(Cc1ccc(N=C(N)N)cc1)NC(=O)C(Cc1ccc(F)cc1)NC(=O)c1ccc(Cl)cc1)C(=O)NC(CCCNC(=N)N)C(N)=O` (stereo not drawn) [N-[1-[1-[1-(1-Carbamoyl-4-guanidino-butylcarbamoyl)-3-methyl-butylcarbamoyl]-2-(4-guanidino-phenyl)-ethylcarbamoyl]-2-(4-fluoro-phenyl)-ethyl]-4-chloro-benzamide] ({Benzoyl(4-Cl)}-[Phe(4-F)][Phe(4-guanidino)]LR-NH2; configuration not given here) gave an EC50 in assay [1] of 3700 nM.

The values above are taken from BindingDB's records for doi:10.1021/jm960455s (Bristol-Myers Squibb Pharmaceutical Research Institute, 1997).
